# According to ChEMBL document CHEMBL5113507, “Discovery of potent ebola entry inhibitors with (3S,4aS,8aS)-2-(3-amino-2-hydroxypropyl) decahydroisoquinoline-3-carboxamide scaffold” (Eur J Med Chem, 2022):
# Experiments:
# [1] = cells
# [2] = Cytotoxicity against human Huh-7 cells assessed as reduction in cell viability by cellular ATP method; assay type: toxicity, cell-based
structure (smiles),measurement,setting,value
CC(C)(C)NC(=O)[C@@H]1C[C@@H]2CCCC[C@@H]2CN1C[C@@H](O)[C@H](Cc1ccccc1)NC(=O)[C@H](CC(N)=O)NC(=O)c1ccc2ccccc2n1,IC50,[1],10.5 µM
CC(C)(C)NC(=O)[C@@H]1C[C@@H]2CCCC[C@@H]2CN1C[C@H](O)CNCCc1ccc(Cl)cc1,CC50,[2],4.04 µM
CN(C)CCOc1ccc(/C(=C(/CCCl)c2ccccc2)c2ccccc2)cc1 [TOREMIFENE],IC50,[1],0.17 µM
same,CC50,[2],9.31 µM
